Laboratory results as given in PMC6117091, “The C. difficile clnRAB operon initiates adaptations to the host environment in response to LL-37” (PLoS Pathogens, 2018).

System: gene expression in C. difficile 630Δerm
Experiment: RNA-seq, genes differentially expressed in LL-37
Settings: 2 µg/ml LL-37, BHIS

CC[C@H](C)[C@H](NC(=O)[C@H](CCCCN)NC(=O)[C@H](CCC(=O)O)NC(=O)[C@H](CCCCN)NC(=O)[C@H](CO)NC(=O)[C@H](CCCCN)NC(=O)[C@H](CCCNC(=N)N)NC(=O)[C@H](Cc1ccccc1)NC(=O)[C@H](Cc1ccccc1)NC(=O)[C@H](CC(=O)O)NC(=O)CNC(=O)[C@H](CC(C)C)NC(=O)[C@@H](N)CC(C)C)C(=O)NCC(=O)N[C@@H](CCCCN)C(=O)N[C@@H](CCC(=O)O)C(=O)N[C@@H](Cc1ccccc1)C(=O)N[C@@H](CCCCN)C(=O)N[C@@H](CCCNC(=N)N)C(=O)N[C@H](C(=O)N[C@H](C(=O)N[C@@H](CCC(N)=O)C(=O)N[C@@H](CCCNC(=N)N)C(=O)N[C@H](C(=O)N[C@@H](CCCCN)C(=O)N[C@@H](CC(=O)O)C(=O)N[C@@H](Cc1ccccc1)C(=O)N[C@@H](CC(C)C)C(=O)N[C@@H](CCCNC(=N)N)C(=O)N[C@@H](CC(N)=O)C(=O)N[C@@H](CC(C)C)C(=O)N[C@H](C(=O)N1CCC[C@H]1C(=O)N[C@@H](CCCNC(=N)N)C(=O)N[C@H](C(=O)N[C@@H](CCC(=O)O)C(=O)N[C@@H](CO)C(=O)O)[C@@H](C)O)C(C)C)[C@@H](C)CC)C(C)C)[C@@H](C)CC [LL-37]
23S_rRNA fold change in LL-37: 0.27
CD630_00470 (ispD) fold change in LL-37: 0.48
CD630_01060 (cwlD) fold change in LL-37: 0.43
CD630_01250 fold change in LL-37: 0.44
CD630_01631 fold change in LL-37: 0.22
CD630_01930 (groS) fold change in LL-37: 0.46
CD630_02910 fold change in LL-37: 3.25
CD630_03140 fold change in LL-37: 0.41
CD630_03240 (cbiM) fold change in LL-37: 0.42
CD630_03250 (cbiN) fold change in LL-37: 0.50
CD630_03260 (cbiQ1) fold change in LL-37: 0.41
CD630_03270 (cbiO) fold change in LL-37: 0.40
CD630_03580 fold change in LL-37: 3.38
CD630_03830 fold change in LL-37: 2.58
CD630_03901 fold change in LL-37: 0.43
CD630_04090 fold change in LL-37: 0.44
CD630_04440 (ortB) fold change in LL-37: 2.09
CD630_04670 fold change in LL-37: 3.43
CD630_04780 (spaF) fold change in LL-37: 3.43
CD630_04800 (spaG) fold change in LL-37: 2.29
CD630_04890 fold change in LL-37: 2.26
CD630_04900 fold change in LL-37: 4.13
CD630_04960 fold change in LL-37: 4.13
CD630_04970 fold change in LL-37: 3.86
CD630_04980 fold change in LL-37: 4.13
CD630_05000 fold change in LL-37: 3.61
CD630_05060 fold change in LL-37: 3.54
CD630_05100 fold change in LL-37: 3.07
CD630_05101 fold change in LL-37: 3.31
CD630_05102 fold change in LL-37: 3.35
CD630_05103 fold change in LL-37: 3.27
CD630_05490 fold change in LL-37: 4.74
CD630_05500 fold change in LL-37: 5.52
CD630_05670 fold change in LL-37: 0.44
CD630_05770 fold change in LL-37: 2.96
CD630_05780 fold change in LL-37: 0.47
CD630_05790 fold change in LL-37: 0.40
CD630_06140 fold change in LL-37: 0.43
CD630_06240 fold change in LL-37: 0.45
CD630_07290 (gcvH) fold change in LL-37: 2.23
CD630_08450 fold change in LL-37: 0.40
CD630_08530 (oppB) fold change in LL-37: 3.02
CD630_08570 (oppF) fold change in LL-37: 2.88
CD630_09080 fold change in LL-37: 0.23
CD630_09170 fold change in LL-37: 0.45
CD630_09260 fold change in LL-37: 2.36
CD630_09340 fold change in LL-37: 0.39
CD630_09360 fold change in LL-37: 0.28
CD630_09950 (serA) fold change in LL-37: 0.23
CD630_09960 fold change in LL-37: 0.24
CD630_10280 fold change in LL-37: 0.48
CD630_10540 (bcd2) fold change in LL-37: 2.94
CD630_10550 (etfB3) fold change in LL-37: 3.07
CD630_10560 (etfA3) fold change in LL-37: 3.22
CD630_10570 (crt2) fold change in LL-37: 2.97
CD630_10580 (hbd) fold change in LL-37: 3.51
CD630_10590 (thlA1) fold change in LL-37: 3.56
CD630_10850 fold change in LL-37: 2.17
CD630_10860 fold change in LL-37: 2.54
CD630_10980 fold change in LL-37: 2.17
CD630_11261 fold change in LL-37: 0.42
CD630_11540 fold change in LL-37: 0.40
CD630_11710 (etfB4) fold change in LL-37: 0.45
CD630_12382 fold change in LL-37: 5.60
CD630_12400 (vanZ) fold change in LL-37: 28.43
CD630_12700 fold change in LL-37: 0.45
CD630_13450 fold change in LL-37: 0.46
CD630_13460 fold change in LL-37: 0.50
CD630_13610 fold change in LL-37: 0.37
CD630_13640 fold change in LL-37: 0.40
CD630_13720 fold change in LL-37: 0.48
CD630_13900 fold change in LL-37: 2.35
CD630_14240 fold change in LL-37: 2.97
CD630_14890 (metN) fold change in LL-37: 0.32
CD630_14900 (met I) fold change in LL-37: 0.32
CD630_15100 fold change in LL-37: 2.24
CD630_15120 (panC) fold change in LL-37: 2.15
CD630_15470 (hisZ) fold change in LL-37: 2.92
CD630_15490 (hisC) fold change in LL-37: 2.86
CD630_15500 (hisB) fold change in LL-37: 3.12
CD630_15510 (hisH) fold change in LL-37: 3.29
CD630_15520 (hisA) fold change in LL-37: 2.80
CD630_15540 (hisI) fold change in LL-37: 3.10
CD630_15560 fold change in LL-37: 2.16
CD630_15660 (ilvB) fold change in LL-37: 2.01
CD630_15800 (hom2) fold change in LL-37: 0.49
CD630_16070 fold change in LL-37: 30.25
CD630_16090 fold change in LL-37: 30.62
CD630_16100 fold change in LL-37: 64.45
CD630_16110 fold change in LL-37: 34.77
CD630_16120 fold change in LL-37: 3.18
CD630_16130 (cotA) fold change in LL-37: 2.18
CD630_16170 (clnR) fold change in LL-37: 186.82
CD630_16180 (clnA) fold change in LL-37: 202.99
CD630_16190 (clnB) fold change in LL-37: 192.16
CD630_16200 fold change in LL-37: 2.15
CD630_16310 (sodA) fold change in LL-37: 2.59
CD630_16590 fold change in LL-37: 2.69
CD630_16632 fold change in LL-37: 0.32
CD630_16740 fold change in LL-37: 2.47
CD630_16990 (ribE) fold change in LL-37: 4.23
CD630_17000 (ribD) fold change in LL-37: 3.65
CD630_17021 (thiS) fold change in LL-37: 2.41
CD630_17151 fold change in LL-37: 2.24
CD630_17170 fold change in LL-37: 2.07
CD630_17452 fold change in LL-37: 0.34
CD630_17540 fold change in LL-37: 0.42
CD630_17880 fold change in LL-37: 2.48
CD630_18020 fold change in LL-37: 3.05
CD630_18270 fold change in LL-37: 0.47
CD630_18470 fold change in LL-37: 0.36
CD630_18860 fold change in LL-37: 0.41
CD630_18870 (csfU) fold change in LL-37: 5.34
CD630_18880 (rsiU) fold change in LL-37: 3.69
